From the NIST ThermoML archive (doi:10.1021/acs.jced.7b00694)

Assay: xn = mol fraction of the nth substance listed
Conditions: Gas, Buoyancy - hydrostatic balance with magnetic suspension - one sinker

[HH] [hydrogen] + N#N
Conditions	mass density [kg/m3]
274.99 K, 14000 kPa, x2 = 0.95	162.308
274.99 K, 14998 kPa, x2 = 0.5001	91.878
274.99 K, 15002 kPa, x2 = 0.95	173.076
274.99 K, 16011 kPa, x2 = 0.95	183.72
274.99 K, 17006 kPa, x2 = 0.95	194.006
275 K, 13999 kPa, x2 = 0.9	153.123
275 K, 15005 kPa, x2 = 0.9	163.298
275 K, 15997 kPa, x2 = 0.5001	97.397
275 K, 16004 kPa, x2 = 0.9	173.22
275 K, 17000 kPa, x2 = 0.5001	102.851
275 K, 17005 kPa, x2 = 0.9	182.969
275 K, 17996 kPa, x2 = 0.5001	108.187
275 K, 18001 kPa, x2 = 0.95	204.074
275 K, 18013 kPa, x2 = 0.9	192.591
275 K, 19000 kPa, x2 = 0.5001	113.476
275 K, 19012 kPa, x2 = 0.9	201.918
275 K, 19017 kPa, x2 = 0.95	214.131
275 K, 19574 kPa, x2 = 0.5001	116.461
275 K, 19891 kPa, x2 = 0.9	209.964
275 K, 20152 kPa, x2 = 0.95	225.084
299.93 K, 997 kPa, x2 = 0.95	10.683
299.93 K, 998 kPa, x2 = 0.9	10.171
299.93 K, 1999 kPa, x2 = 0.9	20.375
299.93 K, 2984 kPa, x2 = 0.9	30.399
299.93 K, 3997 kPa, x2 = 0.9	40.678
299.93 K, 4997 kPa, x2 = 0.9	50.784
299.93 K, 5997 kPa, x2 = 0.9	60.838
299.93 K, 6998 kPa, x2 = 0.9	70.842
299.93 K, 7998 kPa, x2 = 0.9	80.755
299.93 K, 8998 kPa, x2 = 0.9	90.589
299.93 K, 9998 kPa, x2 = 0.9	100.316
299.93 K, 10998 kPa, x2 = 0.9	109.939
299.93 K, 11999 kPa, x2 = 0.9	119.448
299.93 K, 12999 kPa, x2 = 0.9	128.823
299.93 K, 14000 kPa, x2 = 0.9	138.079
299.93 K, 14998 kPa, x2 = 0.9	147.162
299.93 K, 16001 kPa, x2 = 0.9	156.149
299.93 K, 17004 kPa, x2 = 0.9	164.981
299.93 K, 18004 kPa, x2 = 0.9	173.629
299.93 K, 19002 kPa, x2 = 0.9	182.11
299.93 K, 19557 kPa, x2 = 0.9	186.761
299.94 K, 998 kPa, x2 = 0.5001	5.984
299.94 K, 1998 kPa, x2 = 0.5001	11.937
299.94 K, 1998 kPa, x2 = 0.95	21.43
299.94 K, 2984 kPa, x2 = 0.95	32.013
299.94 K, 2999 kPa, x2 = 0.5001	17.846
299.94 K, 3997 kPa, x2 = 0.95	42.862
299.94 K, 3998 kPa, x2 = 0.5001	23.691
299.94 K, 4997 kPa, x2 = 0.95	53.549
299.94 K, 4998 kPa, x2 = 0.5001	29.485
299.94 K, 5998 kPa, x2 = 0.5001	35.223
299.94 K, 5998 kPa, x2 = 0.95	64.189
299.94 K, 6997 kPa, x2 = 0.5001	40.897
299.94 K, 6999 kPa, x2 = 0.95	74.769
299.94 K, 7997 kPa, x2 = 0.5001	46.51
299.94 K, 7999 kPa, x2 = 0.95	85.271
299.94 K, 8996 kPa, x2 = 0.5001	52.057
299.94 K, 9000 kPa, x2 = 0.95	95.695
299.94 K, 9998 kPa, x2 = 0.5001	57.555
299.94 K, 10000 kPa, x2 = 0.95	106.004
299.94 K, 10997 kPa, x2 = 0.5001	62.968
299.94 K, 10999 kPa, x2 = 0.95	116.189
299.94 K, 11998 kPa, x2 = 0.5001	68.317
299.94 K, 12000 kPa, x2 = 0.95	126.269
299.94 K, 12994 kPa, x2 = 0.5001	73.577
299.94 K, 13002 kPa, x2 = 0.95	136.232
299.94 K, 13996 kPa, x2 = 0.5001	78.8
299.94 K, 14000 kPa, x2 = 0.95	146.008
299.94 K, 14998 kPa, x2 = 0.5001	83.948
299.94 K, 14999 kPa, x2 = 0.95	155.65
299.94 K, 15992 kPa, x2 = 0.5001	88.984
299.94 K, 16000 kPa, x2 = 0.95	165.148
299.94 K, 16992 kPa, x2 = 0.5001	93.982
299.94 K, 17005 kPa, x2 = 0.95	174.51
299.94 K, 17997 kPa, x2 = 0.5001	98.934
299.94 K, 18000 kPa, x2 = 0.95	183.626
299.94 K, 18998 kPa, x2 = 0.5001	103.792
299.94 K, 19003 kPa, x2 = 0.95	192.638
299.94 K, 19854 kPa, x2 = 0.5001	107.886
299.94 K, 19889 kPa, x2 = 0.95	200.449
324.94 K, 12002 kPa, x2 = 0.95	115.15
324.94 K, 14997 kPa, x2 = 0.95	141.813
324.94 K, 15998 kPa, x2 = 0.95	150.466
324.94 K, 16993 kPa, x2 = 0.95	158.937
324.94 K, 17986 kPa, x2 = 0.95	167.256
324.94 K, 19001 kPa, x2 = 0.95	175.603
324.94 K, 19731 kPa, x2 = 0.9	171.908
324.94 K, 19880 kPa, x2 = 0.95	182.728
324.95 K, 998 kPa, x2 = 0.5001	5.527
324.95 K, 998 kPa, x2 = 0.9	9.371
324.95 K, 998 kPa, x2 = 0.95	9.855
324.95 K, 1998 kPa, x2 = 0.5001	11.018
324.95 K, 1998 kPa, x2 = 0.95	19.717
324.95 K, 1999 kPa, x2 = 0.9	18.75
324.95 K, 2983 kPa, x2 = 0.9	27.94
324.95 K, 2984 kPa, x2 = 0.95	29.414
324.95 K, 2996 kPa, x2 = 0.5001	16.446
324.95 K, 3997 kPa, x2 = 0.95	39.338
324.95 K, 3999 kPa, x2 = 0.5001	21.856
324.95 K, 3999 kPa, x2 = 0.9	37.374
